# From patent US7772255B2, “Method of treating tumors with azaxanthones” (Supratek Pharma, Inc., priority 2005, dated 2010)
# Like-named read-outs stand apart in the source and are kept apart here.
# Tests used:
# [1] = Pharmacokinetics in normal dogs; format: in vivo, dog (Canis familiaris); conditions: 10 mg/kg
# Procedure: Experiments were performed in 6 male Beagle dogs (Canis familiaris) (from 8 to 14 kg body weight, 2 to 3 years of age). The animals had ad libitum access to tap water. Commercial dog chow was provided to the animals once daily during a 2-hour feeding period.
# Dosing solution of amlexanox salt was prepared by simple dissolving of amlexanox salt in water. Dosing solution of amlexanox acid was prepared suspending of amlexanox acid in 0.5% methyl cellulose.
# Amlexanox acid and Na salt forms were orally administered by gavage in dogs (three animals in each group) at doses of 10 mg/kg. Amlexanox tablets L and CP, prepared according to Example 13, were administered to dogs orally at doses of 10 mg/kg. After various time intervals (pre-dose, 15, 30 min and 1, 2, 3, 6, 8, 12, 24 and 48 h) post-injection, blood was collected from the jugular vein of animals. Then, blood was immediately centrifuged, and plasma was separated. The plasma samples were immediately frozen in dry ice and stored at −80° C. until further use.
# The defrosted plasma samples were centrifuged at 2000 g for 5 min, and aliquots (10 μL) of each sample were transferred into 1.5-ml plastic tubes. The samples were diluted with PBS in various amounts of times and aliquots of 100 μL were transferred into the other 1.5-ml plastic tubes. The samples were extracted with 1 mL of 100% acetonitrile for 10 min on 180° rotator. Then, the tubes were centrifuged at 10,000 g for 15 min.
# (§1) The supernatant was separated to glass tubes and evaporated in a stream of nitrogen at […]. until dryness. The dried samples were kept at −20° C. until HPLC analysis. The samples were reconstituted in 100 μL of mobile phase analyze before analyze by HPLC.
# (§2) The samples were analysed by HPLC using 250×4.6 mm, Phenomenex C18 Luna, 5 micron column, 1 mL/min flow rate of mobile phase 73% of 25 mM sodium phosphate pH 7.5 and 27% acetonitrile; fluorescent deyection λexcitation=348 nm, λemission=404 nm.
# The concentrations of amlexanox in samples were determined by comparison with calibration curve obtained from spiked dog plasma samples using the same analytical method. The areas under the curves (AUC) of amlexanox were calculated by trapezoidal method.
# [2] = Bioavailability and pharmacokinetics in normal rats; format: in vivo, rat; conditions: for AUC / Cmax / MRT / half-life / bioavailability: female, CD, rat, plasma, po; for AUC / Cmax / MRT / half-life / CL / Vss: rat plasma, acid suspended in 1% methyl cellulose; for bioavailability: acid, read-out: Bioavailability for oral administration; for CL / Vss: oral
# Procedure: Female CD rats (from 200 to 250 g body weight) were obtained from Charles River Canada Inc. (St. Constant, Quebec, Canada). The animals were kept 4 per cage with an air filter cover under light (12 h light/dark cycle, light on at 06 h 00) and temperature (22°±1° C.)-controlled environment. All manipulations with the animals were performed under a sterilized laminar hood. The animals had ad libitum access to Purina rat chow (Pro Lab PMH 4018, Trademark of Agway, Syracuse, N.Y.) and water. The animal studies were conducted according to the “Guidelines for Care and Use of Experimental Animals”.
# For Amlexanox salt the dosing solution was prepared by dissolving 20 mg of Amlexanox in equi-molar NaOH solution and then, equilibrated with 1M Tris-HCl pH 7.4. For Amlexanox acid the dosing solution was prepared by simple suspending 20 mg of Amlexanox in 1% methyl cellulose in water.
# Amlexanox dosing solution (20 mg/mL) was administered i.v. and orally in normal rats (four animals in each group) at doses of 10, 25, 50, 100 and 200 mg/kg. After various time intervals (30 min and 1, 3, 6, 10 and 24 h) post-injection, blood was collected from eye vein of animals. Then, blood was immediately centrifuged, and plasma was separated. The plasma samples were immediately frozen in dry ice and stored at −80° C. until further use.
# The defrosted plasma samples were centrifuged at 2000 g for 5 min, and aliquots (10 μL) of each sample were transferred into 1.5-ml plastic tubes. The samples were diluted with phosphate buttered saline (PBS) in various amounts of times and aliquots of 100 μL were transferred into the other 1.5-ml plastic tubes. The samples were extracted with 1 mL of 100% acetonitrile for 10 min on 180° rotator. Then, the tubes were centrifuged at 10,000 g for 15 min.
# as §1, §2
# The concentrations of Amlexanox in samples were determined by comparison with calibration curve obtained from spiked rat plasma samples using the same analytical method. The areas under the curves (AUC) of Amlexanox were calculated by trapezoidal method.
# [3] = dog plasma, oral, listed as Amlexanox Acid
structure (smiles),measurement,setting,value
"CC(C)c1ccc2oc3nc(N)c(C(=O)O)cc3c(=O)c2c1 [Amlexanox, 2-amino-7-isopropyl-1-azaxanthone-3-carboxylic acid]",AUC,[1]; [3],7600 ng·h/mL
same,CL,[1]; [3],21.7 mL/min/kg
same,Cmax,[1]; [3],3400 ng/mL
same,Vss,[1]; [3],4.3 L/kg
same,half-life,"[1]; male, Beagle, dog, plasma, po",2.3 h
same,MRT,"[1]; male, Beagle, dog, plasma, po, read-out: MRT",3.3 h
same,AUC,[2]; 10 mg/kg,1050 ng·h/mL
same,Cmax,[2]; 10 mg/kg,370 ng/mL
same,MRT,[2]; 10 mg/kg,6.28 h
same,half-life,[2]; 10 mg/kg,4.36 h
same,bioavailability,"[2]; 10 mg/kg, 10 mg/kg",31.5%
same,AUC,[2]; 25 mg/kg,1380 ng·h/mL
same,Cmax,[2]; 25 mg/kg,260 ng/mL
same,MRT,[2]; 25 mg/kg,11.3 h
same,half-life,[2]; 25 mg/kg,7.81 h
same,bioavailability,"[2]; 25 mg/kg, 25 mg/kg",2.9%
same,AUC,[2]; 50 mg/kg,2380 ng·h/mL
same,Cmax,[2]; 50 mg/kg,580 ng/mL
same,MRT,[2]; 50 mg/kg,8.43 h
same,half-life,[2]; 50 mg/kg,5.84 h
same,bioavailability,"[2]; 50 mg/kg, 50 mg/kg",1.1%
same,AUC,[2]; 100 mg/kg,8830 ng·h/mL
same,Cmax,[2]; 100 mg/kg,1170 ng/mL
same,MRT,[2]; 100 mg/kg,8.7 h
same,half-life,[2]; 100 mg/kg,6.04 h
same,bioavailability,"[2]; 100 mg/kg, 100 mg/kg",2.2%
same,AUC,[2]; 200 mg/kg,18600 ng·h/mL
same,Cmax,[2]; 200 mg/kg,7000 ng/mL
same,MRT,[2]; 200 mg/kg,5.32 h
same,half-life,[2]; 200 mg/kg,3.68 h
same,bioavailability,"[2]; 200 mg/kg, 200 mg/kg",2.5%
same,CL,[2]; 10 mg/kg,158 mL/min/kg
same,Vss,[2]; 10 mg/kg,59.8 L/kg
same,CL,[2]; 25 mg/kg,301.7 mL/min/kg
same,Vss,[2]; 25 mg/kg,204 L/kg
same,CL,[2]; 50 mg/kg,350.2 mL/min/kg
same,Vss,[2]; 50 mg/kg,177.2 L/kg
same,CL,[2]; 100 mg/kg,188.3 mL/min/kg
same,Vss,[2]; 100 mg/kg,98.5 L/kg
same,CL,[2]; 200 mg/kg,89.5 mL/min/kg
same,Vss,[2]; 200 mg/kg,28.5 L/kg
